Source: US20190211317A1, “PEPTIDES AND NANOPARTICLES FOR INTRACELLULAR DELIVERY OF GENOME-EDITING MOLECULES” (Aadigen, LLC, priority 2016, published 2019)
Where two headings read alike, the source gives them in different places.

Experiments:
[1] = tested on: EGFP-U2OS, EGFP-HEK, EGFP-JURKAT cells; assay: Toxicity of CPP/CAS9/gRNA complexes (MTT assay); format: cell-based; settings: three cell lines; concentrations up to 100 nM; 24 h
Method: The robust EGFP disruption observed in the three cell lines was found not to be the result of cellular toxicity. […] A total of 30,000 cells seeded in 24-well plates the day prior to transfection were incubated with increasing concentrations of CPP/CAS9/gRNA (complexed at a 10:1 or 20:1 molar ratio of CPP to preloaded CAS9/gRNA complex) ranging from 1 to 200 nM for 30 min prior to addition of medium to reach a final 10% concentration of FCS. Cytotoxic response was measured 24 hours later by colorimetric MTT assay (Sigma, Germany). For MTT assay, cell culture medium was removed and replaced with PBS containing 2.5 mg/ml MTT for 4 hours. Results correspond to the average of 3 separate experiments. […] Viability was reduced by less than 10% at 200 nM. In contrast, at […] for Lipofectamine 2000 or RNAiMAX, between 60-70% and 20-25% cell death was observed, depending on cell line. Moreover, both lipid methods appeared to be highly toxic on JURKAT cells, inducing 75% (lipofectamine 2000) or 45% (RNAiMAX) cell death.

[2] = tested on: hPD1 gene in human T cells; assay: Simultaneous delivery of CAR plasmid and CAS9/gRNA: hPD1 editing (T7E1); format: cell-based; settings: for mean indel frequency: two donors
Method: Cells were incubated for 5 min, then 300 μl of serum free RPMI-1640 medium was added. After 30 min, 1.2 mL of full medium was added and serum level was adjusted to 10%. As control, CAS9 loaded with gRNA targeting GFP was used. For comparison with electroporation methods, cells were transfected with the anti-CD-19 CAR plasmid (5 μg) and gRNA/CAS9 (5 μg/10 μg) using Nucleofector 2b (Lonza, Germany) with the Amaxa Human T cells Nucleofector Kit, VPA-1002 (Lonza, Germany).
On day 5, the level of transduced and untransduced cells was analyzed, and cells were transferred to fresh T cell expansion medium. The cultures were analyzed for viability and anti-CD19 CAR expression by flow cytometry. The expression of the anti-CD19 CAR in the T cells was evaluated by flow cytometry using a Protein L assay. […] 7-AAD (Sigma) was used to determine viability. CAS9-induced double-strand break followed by repair through NHEJ system was analyzed by either the T7E1 assay or using the Genome Cleavage Detection kit (GCD Thermo Fisher) and quantified using Fragment Analyzer System. The indel frequency in the target gene was quantified using the T7E1 assay. The cultures were expanded and analyzed for viability, anti-CD19 expression and PD I level every 10 days. T cell expansion medium contained AIM V medium, supplemented with 5% heat-inactivated human AB Serum, 1% Gluta-Max, and 300 IU/mL IL-2.

[3] = tested on: endogenous EMX1 and HPRT genes in primary human cardiac fibroblasts and primary human hepatocytes; assay: EMX1 and HPRT editing in primary human cells (T7E1 assay); format: cell-based; settings: for mean indel frequencies: both genes
Method: ADGN-100 peptides were also evaluated for cellular delivery of multiple RGEN:gRNA complexes targeting endogenous EMX1 and HPRT genes in primary human cardiac fibroblasts and primary human hepatocytes. The CAS9/gRNA complexes contained either CAS9 protein or mRNA encoding the CAS9 protein and a gRNA targeting either EMX1 or HPRT. Human primary cardiac fibroblasts and human primary hepatocytes were freshly obtained and grown in flasks pre-coated with a gelatin-based coating solution and incubated in Culture Complete Growth Medium for 3 days before expansion and treatment. […] Non-Homologous End Joining (NHEJ) was analyzed 72 hours after transfection by the T7E1 assay and compared to delivery using RNAiMAX lipid methods. The toxicity was analyzed for all conditions using the MTT assay.
CAS9 protein was preloaded with purified gRNA-GFP at a molar ratio of 1:1 and incubated for 10 min prior to forming complexes with ADGN peptides.
The following protocol was used for both cell types. Cells were cultured to about 70% confluence at the time of transfection. Cells were maintained in high glucose DMEM media with 10% serum. Before transfection, cells were washed with DMEM twice and resuspended in 0.2 ml of complex solution (16 μl complex+184 μl OPTiMEM) mixed gently and incubated for 10 min at 37° C. 0.8 mL of fresh OPTiMEM (high glucose) was added and cells were incubated for 20 min at 37° C. […] Cells were returned to the incubator at 37° C. and assayed at 72 hours post transfection.
As a positive control, complexes were delivered using RNAiMAX (Invitrogen Thermo Fisher). CAS9-induced double-strand break formation followed by repair throughout the non-homologous end joining (NHEJ) system was analyzed at 72 hours by the T7E1 assay and quantified using a Fragment Analyzer System. The indel frequencies reported for the EMX1 and HPRT genes are an average of 3 separate experiments. Cytotoxicity was analyzed using the MTT assay.

[4] = tested on: primary human fibroblasts and primary human hepatocytes; assay: Toxicity of ADGN-100a/CAS9/gRNA in primary cells (MTT assay); format: cell-based; settings: both primary cell types
Method: Cytotoxic response was measured 24 hours later by colorimetric MTT assay (Sigma, Germany). For MTT assay, cell culture medium was removed and replaced with PBS containing 2.5 mg/ml of MTT for 4 hours.

[5] = tested on: HPRT gene in mouse muscle myoblast cells (C2C12); assay: HPRT gene editing in C2C12 myoblasts (T7E1 assay); format: cell-based
Method: […] Delivery by RNAiMAX was included as a positive control.
CAS9-induced NHEJ was analyzed 72 hours after transfection by PCR (FIG. 26) and T7E1 assay (FIG. 27). The deletion (indel) frequencies in the HPRT gene were quantified using a T7E1 assay by quantifying the amount of uncut vs cut DNA using a Fragment Analyzer System. Data for on-target mutations induced by RGEN/gRNA are reported as an average of 3 separate experiments
The cell line was maintained in 5% CO2 at 37° C. and cell viability was assessed by the Trypan Blue exclusion test. To induce myogenic differentiation, at about 80% cell confluence the medium containing 10% fetal calf serum was substituted with medium containing 1% fetal calf serum. The cells were transfected at the undifferentiated stage or at day 7 after differentiation.

[6] = tested on: U2OS, HEPG2, K562 cells and primary human fibroblasts; assay: CAS9 protein expression after CPP delivery of CAS9 mRNA (ELISA); format: cell-based; settings: day 3
Method: CPP/CAS9 mRNA complexes were formed by mixing the CAS9 mRNA (0.5 μg) with CPP at a 20:1 molar ratio of CPP:CAS9 mRNA and incubating for 30 min at 37° C. prior to cell transfection. Cells were transfected according to optimized protocols for either adherent or suspension cell lines.
Human primary fibroblasts were freshly obtained and grown in flasks pre-coated with a gelatin-based coating solution and incubated in Culture Complete Growth Medium for 3 days before expansion and treatment. U2OS cells were cultured in Dulbecco's Modified Eagle's Medium (DMEM), supplemented with 2 mM glutamine, 1% antibiotics (streptomycin 10,000 μg/mL, penicillin, 10,000 IU/mL) and 10% (w/v) foetal calf serum (FCS), at 37° C. in a humidified atmosphere containing 5% CO2. 35 mm dishes seeded with 150,000 cells the day prior to transfection were grown to 50-60% confluence and set up to be at about 70% confluences at the time of transfection. Before transfection, cells were washed with DMEM (2×) followed by PBS (1×). Cells were then overlaid with 0.2 ml of complex solution (16 μl CPP/Cargo complex in water+184 μl OPTiMEM without antibiotics), mixed gently, and incubated for 10 min at 37° C. 0.8 mL of fresh OPTiMEM or DMEM was then added and cells were incubated for 20 min at 37° C. 2 mL of complete OPTiMEM (high glucose) or DMEM containing 11.4% FCS was then added in order to reach a final FCS concentration of 10%, without removing the overlay of CPP/Cargo complexes. Cells were returned to the incubator (37° C., 5% CO2) and assayed at 72 hours post transfection.
K562 and HEpG2 cells were set up to be at about 70% confluence at the time of transfection. The cells were maintained in high glucose DMEM media with 10% serum. Before transfection, cells were harvested by centrifugation, then washed with DMEM (2×) followed by PBS (1×). Cells were then resuspended in 0.2 ml of complex solution (16 μl CPP/Cargo complex in water+184 μl OPTiMEM without antibiotics), mixed gently, and incubated for 10 min at 37° C. 0.8 mL of fresh OPTiMEM was then added and cells were incubated for 20 min at 37° C. 2 mL of complete OPTiMEM (high glucose) containing 11.4% FCS was then added in order to reach a final FCS concentration of 10%, without removing the overlay of CPP/Cargo complexes. Cells were returned to the incubator (37° C., 5% CO2) and assayed at 72 hours post transfection.
RNAiMAX lipid-based delivery (Invitrogen Thermo Fisher France) was used as a control and transfections were performed following the manufacturer's instructions. CAS9 expression level was analyzed at multiple time points over a period of 10 days as determined by ELISA on protein extracts using antibodies against CRISPR/Cas9 obtained from Diagenode (Diagenode cat. No. C15200223) and ABCAM (clone 7A9-ab191468).

[7] = tested on: endogenous EMX1 gene in U2OS, HEPG2, K562 cells and primary human fibroblasts; assay: EMX1 editing from CPP delivery of CAS9 mRNA/gRNA (T7E1); format: cell-based
Method: CPP/CAS9 mRNA/gRNA complexes were formed by mixing the CAS9 mRNA (0.5 μg) and gRNA (5 μg) with CPP at a 20:1 molar ratio of CPP:cargo and incubating for 30 min at 37° C. prior to cell transfection. Suspension and adherent cells were transfected according to the protocols described in Example 13a. RNAiMAX-mediated delivery (Invitrogen Thermo Fisher France) was used as a control. EMX1 gene editing was analyzed at day 3 and day 6 by T7E1 assay and quantified using a Fragment Analyzer System.

[8] = tested on: endogenous EMX1 gene in U2OS, HEPG2, K562 cells and primary human fibroblasts; assay: EMX1 editing from CPP delivery of CAS9 protein/gRNA (T7E1); format: cell-based; settings: each of the cell types tested; 2.5 μg/5 μg CAS9/gRNA
Method: CPP/CAS9/gRNA complexes were prepared by mixing preloaded CAS9/gRNA complexes (2.5 μg/5 μg CAS9/gRNA) with CPP peptides at a 20:1 molar ratio of CPP to cargo and incubating for 30 min at 37° C. prior to cell transfection. Cells were transfected according to the protocols described in Example 13a, and RNAiMAX-mediated delivery (Invitrogen Thermo Fisher France) was used as a control. EMX1 gene editing was analyzed at day 3 and day 6 by T7E1 assay and quantified using a Fragment Analyzer System.

[9] = tested on: Swiss mice; assay: In vivo delivery of CAS9 mRNA by three CPPs: CAS9 expression in tissues (ELISA); set-up: species or system mouse
Method: Free CAS9 mRNA in physiological buffer was injected as a control.
At day 3, day 6, and day 10 following injection, animals were sacrificed and tissues including lung, liver, brain, kidney, heart, spleen, blood, pancreas, muscle, bone marrow, and intestine were collected. Tissues were homogenized and CAS9 protein levels in protein extracts were analyzed by ELISA using an antibody against CRISPR/Cas9 (SBI clone 7A9).

[10] = tested on: U2OS cells; settings: CAS9 mRNA 0.2 μg and 0.5 μg; 20:1; 72 h
Method: U2OS cells were cultured in Dulbecco's Modified Eagle's Medium (DMEM), supplemented with 2 mM glutamine, 1% antibiotics (streptomycin 10,000 μg/mL, penicillin, 10,000 IU/mL) and 10% (w/v) foetal calf serum (FCS), at 37° C. in a humidified atmosphere containing 5% CO2. […] After 20 min incubation at 37° C., 1 mL of fresh DMEM containing 16% FCS was added in order to reach a final FCS concentration of 10%, without removing the overlay of complexes. Cells were returned to the incubator for 72 hours. CAS9 expression level was quantified by western blot on protein extract using antibody against CRISPR/Cas9 (Diagenode cat. No. C15200223).

[11] = tested on: exogenous eGFP gene reporter in eGFP-U2OS cell line; settings: 72 h
Method: Both lipofectamine 2000 and RNAiMAX delivery methods were included as controls. eGFP-U2OS cells were cultured in Dulbecco's Modified Eagle's Medium (DMEM), supplemented with 2 mM glutamine, 1% antibiotics (streptomycin 10,000 μg/mL, penicillin, 10,000 IU/mL) and 10% (w/v) foetal calf serum (FCS), at 37° C. in a humidified atmosphere containing 5% CO2. A total of 150,000 cells seeded in a 35 mm dish the day prior to transfection were grown to 50-60% confluence and overlaid with 200 μl of preformed complexes, incubated for 5 min, then 400 μl of DMEM was added. After 20 min incubation at 37° C., 1 mL of fresh DMEM containing 16% FCS was added in order to reach a final FCS concentration of 10%, without removing the overlay of complexes. Cells were returned to the incubator for 72 hours.

## CC(C)C[C@H](NC(=O)[C@H](CCCNC(=N)N)NC(=O)[C@H](Cc1c[nH]c2ccccc12)NC(=O)[C@H](CCCNC(=N)N)NC(=O)[C@H](Cc1c[nH]c2ccccc12)NC(=O)CNC(=O)[C@H](C)NC(=O)[C@H](CO)NC(=O)[C@H](CCCNC(=N)N)NC(=O)[C@H](Cc1c[nH]c2ccccc12)NC(=O)[C@H](CCCCN)NC(=O)CCN)C(=O)N[C@@H](Cc1c[nH]c2ccccc12)C(=O)N[C@@H](CCCNC(=N)N)C(=O)N[C@H](C(=O)N[C@@H](CCCNC(=N)N)C(=O)N[C@@H](CO)C(=O)N[C@@H](Cc1c[nH]c2ccccc12)C(=O)N[C@@H](CO)C(=O)N[C@@H](CCCNC(=N)N)C(=O)O)C(C)C [ADGN-100a]
[1]
  toxicity: no toxicity
[2]; Donor 1, CAS9/sgRNA 2.5 μg/5 μg
  Mean indel Frequency ± s.e.m: 44 ± 5%
[2]; Donor 1, CAS9/sgRNA 5 μg/10 μg
  Mean indel Frequency ± s.e.m: 50 ± 3%
[2]; Donor 2, CAS9/sgRNA 2.5 μg/5 μg
  Mean indel Frequency ± s.e.m: 42 ± 3%
[2]; Donor 2, CAS9/sgRNA 5 μg/10 μg
  Mean indel Frequency ± s.e.m: 51 ± 8%
[2]; 2.5 μg/5 μg CAS9/gRNA
  mean indel frequency: approximately 42%
[2]; 5 μg/10 μg CAS9/gRNA
  mean indel frequency: approximately 50%
[3]
  more potent than RNAiMAX: 3-4 folds
[3]; EMX1, Fibroblasts, 20 nM
  Mean indel Frequency ± S.E.M: 65 ± 4%
[3]; EMX1, Fibroblasts, 50 nM
  Mean indel Frequency ± S.E.M: 67 ± 5%
[3]; EMX1, Fibroblasts, CAS9/sgRNA 10 nM
  Mean indel Frequency ± S.E.M: 61 ± 5%
[3]; EMX1, Hepatocytes, 10 nM
  Mean indel Frequency ± S.E.M: 55 ± 6%
[3]; EMX1, Hepatocytes, 20 nM
  Mean indel Frequency ± S.E.M: 58 ± 5%
[3]; EMX1, Hepatocytes, 50 nM
  Mean indel Frequency ± S.E.M: 61 ± 5%
[3]; HPRT (printed HPR/HPRI), Fibroblasts, 10 nM
  Mean indel Frequency ± S.E.M: 62 ± 5%
[3]; HPRT, Fibroblasts, 20 nM
  Mean indel Frequency ± S.E.M: 68 ± 4%
[3]; HPRT, Fibroblasts, 50 nM
  Mean indel Frequency ± S.E.M: 70 ± 5%
[3]; HPRT, Hepatocytes, 10 nM
  Mean indel Frequency ± S.E.M: 54 ± 6%
[3]; HPRT, Hepatocytes, 20 nM
  Mean indel Frequency ± S.E.M: 56 ± 5%
[3]; HPRT, Hepatocytes, 50 nM
  Mean indel Frequency ± S.E.M: 57 ± 5%
[3]; primary fibroblasts, 20 nM
  mean indel frequencies: more than 60%
[3]; primary hepatocytes, 20 nM
  mean indel frequencies: > 55%
[4]
  toxicity: less than 10%
[5]; differentiated C2C12
  mean indel frequency: 47%
[5]; undifferentiated C2C12, 5 μg/10 μg CAS9/gRNA, 20:1
  mean indel frequency: 79%
[6]; U2OS, K562, HepG2, CAS9 mRNA 0.5 μg
  ELISA signal for CAS9 protein expression: about 25 times the background
[6]; primary human fibroblasts
  ELISA signal for CAS9 protein expression: about 20 times the background
[7]
  mean indel frequencies: about 60%
[8]
  mean indel frequencies: 60-65%
[9]; day 10, liver
  CAS9 expression: CAS9 expression was observed
[9]; liver, day 3 and day 6, CAS9 mRNA 5 μg i.v., 20:1
  ELISA signal for CAS9 protein expression: greater than 20 times that of background
[9]; other tissues examined
  CAS9 protein expression: Little to no increase
[10]
  CAS9 protein expression: dose-dependent expression of CAS9 protein
[11]; CAS9 mRNA/gRNA (0.5 μg/5 μg)
  decrease in EGFP expression: 85%
[11]; CAS9 protein/gRNA (2.5 μM/5 μM)
  decrease in EGFP expression: 87%
